Consider 21 compounds from patent publication US20220023281A1, “HETEROCYCLIC SPIRO-COMPOUNDS AS AM2 RECEPTOR INHIBITORS” (THE UNIVERSITY OF SHEFFIELD, priority 2018, published 2022).

The experiment addresses T1, AM2 receptor-expressing cells (1321N1 cells transfected with CALCRL+RAMP3) (Homo sapiens, UniProt O60896+Q16602).
T1 construct: host or cells: 1321N1 cells
Briefly: AM2 receptor inhibition, LANCE cAMP agonist-antagonist competition assay (AM2 D2 protocol). It is filed as cell-based. The following applies: inhibition of AM induced cAMP in 1321N1 cells expressing CALCRL+RAMP3; read-out: AM2 D2 protocol: pIC50 (converted). As for the experimental part:
Compounds were assessed for their ability to inhibit ligand-induced elevations of cAMP, using the Perkin Elmer LANCE cAMP assay using commercially-available cells expressing a specific receptor of interest using the following general procedure:
Compounds were prepared in dimethyl sulfoxide (DMSO—99.9% pure) (Sigma Aldrich, Cat #: D4540) added to powder stocks to produce a 20 mM solution (100% DMSO) that was sonicated at 37° C. for 10 minutes to fully dissolve the compounds. The 20 mM stocks were diluted further in DMSO to produce a 2 mM solution that was sonicated at 37° C. for 10 minutes. 2 mM stocks were dissolved in assay/stimulation buffer to produce a 400 μM solution that was sonicated at 37° C. for 10 minutes for all cAMP assays. All stocks were stored at −20° C. Then serial dilution (Dilution factor: 10) was performed to achieve the desire experimental concentrations.
Competition assays were performed according to the manufactures instructions using LANCE® TR-FRET cAMP assay kit (Perkin Elmer, Cat #: AD0264). Serial dilutions (3 μl/well) of the molecules were plated in a 384-well OptiPlate (Perkin Elmer, Cat #: 6007299) in duplicates. Appropriate controls (100% stimulation: Forskolin and 0% stimulation: Vehicle control) (6 μl/well) were included in each plate for data normalization. Following the compound addition, 6 μl of G-protein coupled receptor overexpressing cells/Alexa Fluor antibody solution (1:100 dilution) was added in each well at a desired density of 2500 cells/well. The overexpressing cell lines were purchased from DiscoveRx, Birmingham, UK. After spinning the plate at 1000 rpm for 1 minute and vortexing briefly, the cells were pre-incubated with the compounds for 30 minutes at room temperature (covered). Then 3 μl of the equivalent peptide ligand (EC50 dose) was added to all the wells except vehicle and forskolin controls. The plate were then spun down at 1000 rpm for 1 minute and once finished they were vortexed briefly and covered. Cells were stimulated in the presence of the ligands for 15 minutes at room temperature. After stimulation 12 μl of detection mix (Europium-Chelate streptavidin/biotinylated cAMP tracer solution) was added to all wells and incubated for 60 minutes at room temperature. The plate was then read on the Enspire multimode Plate reader (Perkin Elmer), at; 320/340 nm excitation and 615/665 nm emission was recorded.
Assay/Stimulation Buffer (30 mL)—pH 7.4 • 28 mL Hank's Balanced salt solution (+MgCl2, +CaCl2))—(Thermo Fisher Cat #:14170112) • 150 μl HEPES (1M)—(Thermo Fisher Cat #:15630080) • 400 μl Stabilizer (DTPA) Purified BSA (7.5%)—(Perkin Elmer, Cat #: CR84-100) • 60 μl IBMX (250 mM)—(Sigma Aldrich, Cat #: 15879)
The ability of a compound to inhibit the AM induced cAMP activation in AM2 receptor-expressing cells (1321N1 cells transfected with CALCRL+RAMP3, sourced from DiscoverX catalogue number 95-0169C6) was assessed using the protocol above.

T1 sequence (Q16602 23-461): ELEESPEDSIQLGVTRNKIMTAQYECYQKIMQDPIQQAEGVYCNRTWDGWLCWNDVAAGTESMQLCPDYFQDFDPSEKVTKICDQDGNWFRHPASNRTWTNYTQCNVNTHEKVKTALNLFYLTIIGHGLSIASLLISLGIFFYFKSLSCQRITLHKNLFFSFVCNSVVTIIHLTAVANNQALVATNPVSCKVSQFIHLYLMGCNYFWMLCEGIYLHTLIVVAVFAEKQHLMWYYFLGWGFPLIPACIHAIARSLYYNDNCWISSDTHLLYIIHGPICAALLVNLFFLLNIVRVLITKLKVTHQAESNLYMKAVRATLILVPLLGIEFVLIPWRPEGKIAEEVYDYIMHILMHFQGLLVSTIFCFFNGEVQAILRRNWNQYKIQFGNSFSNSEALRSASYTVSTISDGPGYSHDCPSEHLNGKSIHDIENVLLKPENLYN
T1 sequence (O60896 24-148): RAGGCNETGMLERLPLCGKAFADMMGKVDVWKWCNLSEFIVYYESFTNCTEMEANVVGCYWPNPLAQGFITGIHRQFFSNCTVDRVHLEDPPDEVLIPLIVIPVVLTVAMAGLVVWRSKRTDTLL

Turning to `CC(C)(C)C(=O)N(CC(=O)Nc1ccc2c(c1)C[C@@]1(C2)C(=O)Nc2ncccc21)C1CCC2CCC1N2` (single isomer, unassigned) [Example 31A], the IC50 was 316 nM.

For the compound `O=C(CN(C(=O)N1CCCC1)[C@H]1CCCNC1)Nc1ccc2c(c1)C[C@@]1(C2)C(=O)Nc2ncccc21` [Example 22, N-(2-Oxo-2-(((R)-2′-oxo-1,1′,2′,3-tetrahydrospiro[indene-2,3′-pyrrolo [2,3-b]pyridin]-5-yl)amino)ethyl)-N—((S)-piperidin-3-yl)pyrrolidine-1-carboxamide], the IC50 was 245 nM.

For `CCC1(C(=O)N(CC(=O)Nc2ccc3c(c2)C[C@@]2(C3)C(=O)Nc3ncccc32)[C@H]2CCCNC2)CCN(C(C)=O)CC1` [Example 19, 1-Acetyl-4-ethyl-N-(2-oxo-2-(((R)-2′-oxo-1,1′,2′,3-tetrahydrospiro[indene-2,3′-pyrrolo[2,3-b]pyridin]-5-yl)amino)ethyl)-N—((S)-piperidin-3-yl)piperidine-4-carboxamide], the IC50 was 14.1 nM.

With `O=C(CN(C(=O)C1(C(F)(F)F)CC1)[C@H]1CCCNC1)Nc1ccc2c(c1)C[C@@]1(C2)C(=O)Nc2ncccc21` [Example 7, N-(2-Oxo-2-(((R)-2′-oxo-1,1′,2′,3-tetrahydrospiro[indene-2,3′-pyrrolo[2,3-b]pyridin]-5-yl)amino)ethyl)-N—((S)-piperidin-3-yl)-1-(trifluoromethyl)cyclopropanecarboxamide], the IC50 is 955 nM.

For `CC(C)(CC(F)(F)F)C(=O)N(CC(=O)Nc1ccc2c(c1)C[C@@]1(C2)C(=O)Nc2ncccc21)[C@H]1CCCNC1` [Example 13, 4,4,4-Trifluoro-2,2-dimethyl-N-(2-oxo-2-(((R)-2′-oxo-1,1′,2′,3-tetrahydrospiro[indene-2,3′-pyrrolo[2,3-b]pyridin]-5-yl)amino)ethyl)-N—((S)-piperidin-3-yl)butanamide], the IC50 was 63.1 nM.

Consider `CC1(C(=O)N(CC(=O)Nc2ccc3c(c2)C[C@@]2(C3)C(=O)Nc3ncccc32)[C@H]2CCCNC2)CCN(C(=O)c2ccccn2)CC1` [Example 17, 4-Methyl-N-(2-oxo-2-(((R)-2′-oxo-1,1′,2′,3-tetrahydrospiro[indene-2,3′-pyrrolo[2,3-b]pyridin]-5-yl)amino)ethyl)-1-picolinoyl-N—((S)-piperidin-3-yl)piperidine-4-carboxamide], for which the IC50 is 18.6 nM.

On to `O=C(CN(C(=O)C12CC(C1)C2)[C@H]1CCCNC1)Nc1ccc2c(c1)C[C@@]1(C2)C(=O)Nc2ncccc21` [Example 4, N-(2-Oxo-2-(((R)-2′-oxo-1,1′,2′,3-tetrahydrospiro[indene-2,3′-pyrrolo [2,3-b]pyridin]-5-yl)amino)ethyl)-N—((S)-piperidin-3-yl)bicyclo[1.1.1]pentane-1-carboxamide], for which the IC50 was 251 nM.

Regarding `CC(C)(C)C(=O)N(CC(=O)Nc1ccc2c(c1)CC1(C2)C(=O)Nc2ncccc21)C1CCCNC1` (stereo not drawn) [Example 1, N-(2-Oxo-2-((2′-oxo-1,1′,2′,3-tetrahydrospiro[indene-2,3′-pyrrolo[2,3-b]pyridin]-5-yl)amino)ethyl)-N-(piperidin-3-yl)pivalamide], the IC50 was 14.5 nM.

Regarding `CC1(C(=O)N(CC(=O)Nc2ccc3c(c2)C[C@@]2(C3)C(=O)Nc3ncccc32)[C@H]2CCCNC2)CCNCC1` [Example 15, 4-Methyl-N-(2-oxo-2-(((R)-2′-oxo-1,1′,2′,3-tetrahydrospiro[indene-2,3′-pyrrolo[2,3-b]pyridin]-5-yl)amino)ethyl)-N—((S)-piperidin-3-yl)piperidine-4-carboxamide], the IC50 was 50.1 nM.

`COC(C)(C)C(=O)N(CC(=O)Nc1ccc2c(c1)C[C@@]1(C2)C(=O)Nc2ncccc21)[C@H]1CCCNC1` [Example 11, 2-Methoxy-2-methyl-N-(2-oxo-2-(((R)-2′-oxo-1,1′,2′,3-tetrahydrospiro[indene-2,3′-pyrrolo[2,3-b]pyridin]-5-yl)amino)ethyl)-N—((S)-piperidin-3-yl)propenamide]: the IC50 is 85.1 nM.

On to `CC(=O)N1CCN(C(=O)N(CC(=O)Nc2ccc3c(c2)C[C@@]2(C3)C(=O)Nc3ncccc32)[C@H]2CCCNC2)CC1` [Example 23, 4-Acetyl-N-(2-oxo-2-(((R)-2′-oxo-1,1′,2′,3-tetrahydrospiro[indene-2,3′-pyrrolo[2,3-b]pyridin]-5-yl)amino)ethyl)-N—((S)-piperidin-3-yl)piperazine-1-carboxamide], for which the IC50 was 2880 nM.

As for `C[C@@H]1CC[C@H](N(CC(=O)Nc2ccc3c(c2)C[C@@]2(C3)C(=O)Nc3ncccc32)C(=O)C(C)(C)C)CN1` (relative stereo) [Example 29, N-((3S*,6R*)-6-Methylpiperidin-3-yl)-N-(2-oxo-2-(((R)-2′-oxo-1,1′,2′,3-tetrahydrospiro[indene-2,3′-pyrrolo[2,3-b]pyridin]-5-yl)amino)ethyl)pivalamide], the IC50 is 178 nM.

Regarding `CC(C)(C#N)C(=O)N(CC(=O)Nc1ccc2c(c1)C[C@@]1(C2)C(=O)Nc2ncccc21)[C@H]1CCCNC1` [Example 10, 2-Cyano-2-methyl-N-(2-oxo-2-(((R)-2′-oxo-1,1′,2′,3-tetrahydrospiro[indene-2,3′-pyrrolo[2,3-b]pyridin]-5-yl)amino)ethyl)-N—((S)-piperidin-3-yl)propenamide], the IC50 is 50.1 nM.

On to `CC(C)(C)C(=O)N(CC(=O)Nc1ccc2c(c1)C[C@@]1(C2)C(=O)Nc2ncccc21)C1CC2CNC1C2` (stereo partly drawn) [Example 30, N-(2-Azabicyclo[2.2.1]heptan-6-yl)-N-(2-oxo-2-(((R)-2′-oxo-1,1′,2′,3-tetrahydrospiro[indene-2,3′-pyrrolo[2,3-b]pyridin]-5-yl)amino)ethyl)pivalamide], for which the IC50 was 3020 nM.

For `CC(C)(C(=O)N(CC(=O)Nc1ccc2c(c1)C[C@@]1(C2)C(=O)Nc2ncccc21)[C@H]1CCCNC1)C(F)(F)F` [Example 9, 3,3,3-Trifluoro-2,2-dimethyl-N-(2-oxo-2-(((R)-2′-oxo-1,1′,2′,3-tetrahydrospiro[indene-2,3′-pyrrolo[2,3-b]pyridin]-5-yl)amino)ethyl)-N—((S)-piperidin-3-yl)propanamide], the IC50 was 43.7 nM.

In the case of `CC(C)(C)C(=O)N(CC(=O)Nc1ccc2c(c1)C[C@@]1(C2)C(=O)Nc2ncccc21)C1CCC2CCC1N2` (single isomer, unassigned) [Example 31B], the IC50 was 200 nM.

For `CNC(=O)N1CCC(C)(C(=O)N(CC(=O)Nc2ccc3c(c2)C[C@@]2(C3)C(=O)Nc3ncccc32)[C@H]2CCCNC2)CC1` [Example 20, N1,4-Dimethyl-N4-[2-oxo-2-[[(3R)-2-oxospiro[1H-pyrrolo[2,3-b]pyridine-3,2′-indane]-5′-yl]amino]ethyl]-N4-[(3S)-3-piperidyl]piperidine-1,4-dicarboxamide], the IC50 was 56.2 nM.

Take `CC(C)(C)C(=O)N(CC(=O)Nc1ccc2c(c1)C[C@@]1(C2)C(=O)Nc2ncccc21)[C@H]1CCCNC1` [Example 2, N-(2-Oxo-2-(((R)-2′-oxo-1,1′,2′,3-tetrahydrospiro[indene-2,3′-pyrrolo[2,3-b]pyridin]-5-yl)amino)ethyl)-N—((S)-piperidin-3-yl)pivalamide]: the IC50 is 3.02 nM.

For the compound `CC(C)(C)C(=O)N(CC(=O)Nc1ccc2c(c1)C[C@@]1(C2)C(=O)Nc2ncccc21)[C@@H]1CCCNC1` [Example 3, N-(2-Oxo-2-(((R)-2′-oxo-1,1′,2′,3-tetrahydrospiro[indene-2,3′-pyrrolo[2,3-b]pyridin]-5-yl)amino)ethyl)-N—((R)-piperidin-3-yl)pivalamide], the IC50 is 741 nM.

In the case of `CC(C)(C)C(=O)N(CC(=O)Nc1ccc2c(c1)CC1(C2)C(=O)Nc2ncccc21)C1CCCCNC1` (stereo not drawn) [Example 25, N-(Azepan-3-yl)-N-(2-oxo-2-((2′-oxo-1,1′,2′,3-tetrahydrospiro[indene-2,3′-pyrrolo[2,3-b]pyridin]-5-yl)amino)ethyl)pivalamide], the IC50 was 129 nM.

Take `CC(C)(C)C(=O)N(CC(=O)Nc1ccc2c(c1)CC1(C2)C(=O)Nc2ncccc21)C1CCCNCC1` (stereo not drawn) [Example 26, N-(Azepan-4-yl)-N-(2-oxo-2-((2′-oxo-1,1′,2′,3-tetrahydrospiro[indene-2,3′-pyrrolo[2,3-b]pyridin]-5-yl)amino)ethyl)pivalamide]: the IC50 was 479 nM.
